For 21 compounds, IC50 results are on record in patent US20240124417A1, “COMPOUNDS USEFUL AS IMMUNOMODULATORS” (Bristol-Myers Squibb Company, priority 2019, published 2024).

The structures appear in SMILES notation.

Broadly, the IC50 is the point on the concentration scale where inhibition reaches its midpoint. A high value points to a need for much substance.

In the test the target is T1, PD-1/PD-L1 (Homo sapiens, UniProt Q9NZQ7).
T1 construct: TVMV protease site linker (C); made in house; host or cells: HEK293T cells
T1 sequence (Q9NZQ7 18-239): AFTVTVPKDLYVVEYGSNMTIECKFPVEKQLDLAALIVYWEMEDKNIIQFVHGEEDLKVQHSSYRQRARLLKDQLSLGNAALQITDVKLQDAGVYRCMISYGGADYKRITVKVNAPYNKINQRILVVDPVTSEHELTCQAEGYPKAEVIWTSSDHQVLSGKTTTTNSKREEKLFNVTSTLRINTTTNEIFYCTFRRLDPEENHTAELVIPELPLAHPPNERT
Briefly: PD-1/PD-L1 Homogenous Time-Resolved Fluorescence (HTRF) binding assay. Particulars: PD-L1-His 10 nM, PD-1-Ig 20 nM. In short, it runs like this: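 Inhibitors pre-incubated 15 min with PD-L1-His extracellular domain (10 nM final) in dPBS with 0.1% BSA and 0.05% Tween-20, then PD-1-Ig (20 nM final) added for a further 15 min. Read-out by HTRF with europium cryptate anti-Ig (1 nM) and APC anti-His (20 nM). Related pairs: PD-1-Ig/PD-L2-His (20/5 nM), CD80-His/PD-L1-Ig (100/10 nM).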
(In general: In TR-FRET formats the signal depends on donor and acceptor labels being close together.)
In the case of `Cc1c(COc2cc(OCc3cncc(C#N)c3)c(CN3CCc4cn[nH]c4C3)cc2Cl)cccc1-c1cccc(OCC2CCCN(C)C2)c1Cl` (stereo not drawn) [Example 2589, 5-((4-chloro-5-((2′-chloro-2-methyl-3′-((1-methylpiperidin-3-yl)methoxy)-[1,1′-biphenyl]-3-yl)methoxy)-2-((1,4,5,7-tetrahydro-6H-pyrazolo[3,4-c]pyridin-6-yl)methyl)phenoxy)methyl)nicotinonitrile], the IC50 was found to be 7.9 nM. This counts as single-digit nanomolar.

With `Cc1c(COc2cc(OCc3cncc(C#N)c3)c(CNCc3ncco3)cc2Cl)cccc1-c1cccc(OCC2CCCN(C)C2)c1Cl` (stereo not drawn) [Example 2590, 5-((4-chloro-5-((2′-chloro-2-methyl-3′-((1-methylpiperidin-3-yl)methoxy)-[1,1′-biphenyl]-3-yl)methoxy)-2-(((oxazol-2-ylmethyl)amino)methyl)phenoxy)methyl)nicotinonitrile], the concentration for half-maximal inhibition (IC50) came out at 2 nM.

The compound `Cc1c(COc2cc(OCc3cncc(C#N)c3)c(CNCc3cnco3)cc2Cl)cccc1-c1cccc(OCC2CCCN(C)C2)c1Cl` (stereo not drawn) [Example 2591, 5-((4-chloro-5-((2′-chloro-2-methyl-3′-((1-methylpiperidin-3-yl)methoxy)-[1,1′-biphenyl]-3-yl)methoxy)-2-(((oxazol-5-ylmethyl)amino)methyl)phenoxy)methyl)nicotinonitrile] had a half-inhibitory concentration (IC50) of 1.9 nM.

With `Cc1c(COc2cc(OCc3cncc(C#N)c3)c(CN3CCc4c(ncn4C)C3)cc2Cl)cccc1-c1cccc(OCC2CCCN(C)C2)c1Cl` (stereo not drawn) [Example 2592, 5-((4-chloro-5-((2′-chloro-2-methyl-3′-((1-methylpiperidin-3-yl)methoxy)-[1,1′-biphenyl]-3-yl)methoxy)-2-((1-methyl-1,4,6,7-tetrahydro-5H-imidazo[4,5-c]pyridin-5-yl)methyl)phenoxy)methyl)nicotinonitrile], the IC50 worked out at 3.6 nM.

On to `Cc1c(COc2cc(OCc3cncc(C#N)c3)c(CNCCc3nc4ccccc4[nH]3)cc2Cl)cccc1-c1cccc(OCC2CCCN(C)C2)c1Cl` (stereo not drawn) [Example 2593, 5-((2-(((2-(1H-benzo[d]imidazol-2-yl)ethyl)amino)methyl)-4-chloro-5-((2′-chloro-2-methyl-3′-((1-methylpiperidin-3-yl)methoxy)-[1,1′-biphenyl]-3-yl)methoxy)phenoxy)methyl)nicotinonitrile], for which the IC50 was determined as 3 nM.

Consider `Cc1ncsc1CCNCc1cc(Cl)c(OCc2cccc(-c3cccc(OCC4CCCN(C)C4)c3Cl)c2C)cc1OCc1cncc(C#N)c1` (stereo not drawn) [Example 2594, 5-((4-chloro-5-((2′-chloro-2-methyl-3′-((1-methylpiperidin-3-yl)methoxy)-[1,1′-biphenyl]-3-yl)methoxy)-2-(((2-(4-methylthiazol-5-yl)ethyl)amino)methyl)phenoxy)methyl)nicotinonitrile], for which the IC50 came to 0.7 nM.

As to `COCc1noc(CNCc2cc(Cl)c(OCc3cccc(-c4cccc(OCC5CCCN(C)C5)c4Cl)c3C)cc2OCc2cncc(C#N)c2)n1` (stereo not drawn) [Example 2595, 5-((4-chloro-5-((2′-chloro-2-methyl-3′-((1-methylpiperidin-3-yl)methoxy)-[1,1′-biphenyl]-3-yl)methoxy)-2-((((3-(methoxymethyl)-1,2,4-oxadiazol-5-yl)methyl)amino)methyl)phenoxy)methyl)nicotinonitrile], the concentration for half-maximal inhibition (IC50) was determined as 2 nM.

In turn, `Cc1c(COc2cc(OCc3cncc(C#N)c3)c(CNCc3cc(C)n(C)n3)cc2Cl)cccc1-c1cccc(OCC2CCCN(C)C2)c1Cl` (stereo not drawn) [Example 2596, 5-((4-chloro-5-((2′-chloro-2-methyl-3′-((1-methylpiperidin-3-yl)methoxy)-[1,1′-biphenyl]-3-yl)methoxy)-2-((((1,5-dimethyl-1H-pyrazol-3-yl)methyl)amino)methyl)phenoxy)methyl)nicotinonitrile] registered a concentration for half-maximal inhibition (IC50) of 2.9 nM.

`Cc1noc(C)c1CNCc1cc(Cl)c(OCc2cccc(-c3cccc(OCC4CCCN(C)C4)c3Cl)c2C)cc1OCc1cncc(C#N)c1` (stereo not drawn) [Example 2597, 5-((4-chloro-5-((2′-chloro-2-methyl-3′-((1-methylpiperidin-3-yl)methoxy)-[1,1′-biphenyl]-3-yl)methoxy)-2-((((3,5-dimethylisoxazol-4-yl)methyl)amino)methyl)phenoxy)methyl)nicotinonitrile] showed an IC50 of 2.9 nM.

Compound `Cc1c(COc2cc(OCc3cncc(C#N)c3)c(CNCCc3cscn3)cc2Cl)cccc1-c1cccc(OCC2CCCN(C)C2)c1Cl` (stereo not drawn) [Example 2598, 5-((4-chloro-5-((2′-chloro-2-methyl-3′-((1-methylpiperidin-3-yl)methoxy)-[1,1′-biphenyl]-3-yl)methoxy)-2-(((2-(thiazol-4-yl)ethyl)amino)methyl)phenoxy)methyl)nicotinonitrile] displayed a half-maximal inhibitory concentration (IC50) of 1 nM.

The compound `Cc1n[nH]c(C)c1CNCc1cc(Cl)c(OCc2cccc(-c3cccc(OCC4CCCN(C)C4)c3Cl)c2C)cc1OCc1cncc(C#N)c1` (stereo not drawn) [Example 2599, 5-((4-chloro-5-((2′-chloro-2-methyl-3′-((1-methylpiperidin-3-yl)methoxy)-[1,1′-biphenyl]-3-yl)methoxy)-2-((((3,5-dimethyl-1H-pyrazol-4-yl)methyl)amino)methyl)phenoxy)methyl)nicotinonitrile] came in with an IC50 of 1.7 nM.

Compound `Cc1nc2c(s1)CN(Cc1cc(Cl)c(OCc3cccc(-c4cccc(OCC5CCCN(C)C5)c4Cl)c3C)cc1OCc1cncc(C#N)c1)CC2` (stereo not drawn) [Example 2600, 5-((4-chloro-5-((2′-chloro-2-methyl-3′-((1-methylpiperidin-3-yl)methoxy)-[1,1′-biphenyl]-3-yl)methoxy)-2-((2-methyl-6,7-dihydrothiazolo[5,4-c]pyridin-5(4H)-yl)methyl)phenoxy)methyl)nicotinonitrile] yielded a 50% inhibitory concentration (IC50) of 7.2 nM.

As to `Cc1c(COc2cc(OCc3cncc(C#N)c3)c(CNC3CCc4[nH]ncc4C3)cc2Cl)cccc1-c1cccc(OCC2CCCN(C)C2)c1Cl` (stereo not drawn) [Example 2601, 5-((4-chloro-5-((2′-chloro-2-methyl-3′-((1-methylpiperidin-3-yl)methoxy)-[1,1′-biphenyl]-3-yl)methoxy)-2-(((4,5,6,7-tetrahydro-1H-indazol-5-yl)amino)methyl)phenoxy)methyl)nicotinonitrile], the half-maximal inhibitory concentration (IC50) was determined as 0.6 nM.

`Cc1c(COc2cc(OCc3cncc(C#N)c3)c(CNCc3cc4ccccn4n3)cc2Cl)cccc1-c1cccc(OCC2CCCN(C)C2)c1Cl` (stereo not drawn) [Example 2602, 5-((4-chloro-5-((2′-chloro-2-methyl-3′-((1-methylpiperidin-3-yl)methoxy)-[1,1′-biphenyl]-3-yl)methoxy)-2-(((pyrazolo[1,5-a]pyridin-2-ylmethyl)amino)methyl)phenoxy)methyl)nicotinonitrile] returned an IC50 of 1.6 nM. This IC50 is about 2.7-fold higher than that of the compound before.

In the case of `Cc1nc(CNCc2cc(Cl)c(OCc3cccc(-c4cccc(OCC5CCCN(C)C5)c4Cl)c3C)cc2OCc2cncc(C#N)c2)no1` (stereo not drawn) [Example 2603, 5-((4-chloro-5-((2′-chloro-2-methyl-3′-((1-methylpiperidin-3-yl)methoxy)-[1,1′-biphenyl]-3-yl)methoxy)-2-((((5-methyl-1,2,4-oxadiazol-3-yl)methyl)amino)methyl)phenoxy)methyl)nicotinonitrile], the IC50 is 0.9 nM.

As to `Cc1nnc(CNCc2cc(Cl)c(OCc3cccc(-c4cccc(OCC5CCCN(C)C5)c4Cl)c3C)cc2OCc2cncc(C#N)c2)[nH]1` (stereo not drawn) [Example 2604, 5-((4-chloro-5-((2′-chloro-2-methyl-3′-((1-methylpiperidin-3-yl)methoxy)-[1,1′-biphenyl]-3-yl)methoxy)-2-((((5-methyl-4H-1,2,4-triazol-3-yl)methyl)amino)methyl)phenoxy)methyl)nicotinonitrile], the IC50 worked out at 2.3 nM.

`Cc1c(COc2cc(OCc3cncc(C#N)c3)c(CNCCc3nc4ccccc4n3C)cc2Cl)cccc1-c1cccc(OCC2CCCN(C)C2)c1Cl` (stereo not drawn) [Example 2605, 5-((4-chloro-5-((2′-chloro-2-methyl-3′-((1-methylpiperidin-3-yl)methoxy)-[1,1′-biphenyl]-3-yl)methoxy)-2-(((2-(1-methyl-1H-benzo[d]imidazol-2-yl)ethyl)amino)methyl)phenoxy)methyl)nicotinonitrile]: the concentration for half-maximal inhibition (IC50) was 0.6 nM. Compared with the last compound, the IC50 is about 3.8-fold lower.

Regarding `Cc1c(COc2cc(OCc3cncc(C#N)c3)c(CNCc3ccc4cc[nH]c4c3)cc2Cl)cccc1-c1cccc(OCC2CCCN(C)C2)c1Cl` (stereo not drawn) [Example 2606, 5-((2-((((1H-indol-6-yl)methyl)amino)methyl)-4-chloro-5-((2′-chloro-2-methyl-3′-((1-methylpiperidin-3-yl)methoxy)-[1,1′-biphenyl]-3-yl)methoxy)phenoxy)methyl)nicotinonitrile], the concentration for half-maximal inhibition (IC50) amounted to 1.4 nM.

Regarding `Cc1c(COc2cc(OCc3cncc(C#N)c3)c(CNCc3cc(C4CC4)on3)cc2Cl)cccc1-c1cccc(OCC2CCCN(C)C2)c1Cl` (stereo not drawn) [Example 2607, 5-((4-chloro-5-((2′-chloro-2-methyl-3′-((1-methylpiperidin-3-yl)methoxy)-[1,1′-biphenyl]-3-yl)methoxy)-2-((((5-cyclopropylisoxazol-3-yl)methyl)amino)methyl)phenoxy)methyl)nicotinonitrile], the 50% inhibitory concentration (IC50) was found to be 4.2 nM.

In the case of `Cc1c(COc2cc(OCc3cncc(C#N)c3)c(CN3CCC(c4cc[nH]n4)C3)cc2Cl)cccc1-c1cccc(OCC2CCCN(C)C2)c1Cl` (stereo not drawn) [Example 2608, 5-((2-((3-(1H-pyrazol-3-yl)pyrrolidin-1-yl)methyl)-4-chloro-5-((2′-chloro-2-methyl-3′-((1-methylpiperidin-3-yl)methoxy)-[1,1′-biphenyl]-3-yl)methoxy)phenoxy)methyl)nicotinonitrile], the IC50 was determined as 2.3 nM.

As for `Cc1nc2ccc(CNCc3cc(Cl)c(OCc4cccc(-c5cccc(OCC6CCCN(C)C6)c5Cl)c4C)cc3OCc3cncc(C#N)c3)cc2[nH]1` (stereo not drawn) [Example 2609, 5-((4-chloro-5-((2′-chloro-2-methyl-3′-((1-methylpiperidin-3-yl)methoxy)-[1,1′-biphenyl]-3-yl)methoxy)-2-((((2-methyl-1H-benzo[d]imidazol-6-yl)methyl)amino)methyl)phenoxy)methyl)nicotinonitrile], the IC50 is 1.1 nM.
